According to the NIST ThermoML archive (doi:10.1021/je800586u):
± gives the expanded uncertainty stated by the source.

Conditions: Crystal

C1CSCCS1 [1,4-dithiacyclohexane]
vapor or sublimation pressure (296.65 K, Transpiration method): 0.00918 ± 0.00046 kPa
vapor or sublimation pressure (355.75 K, Rate of evaporation): 1.067 ± 0.51 kPa
vapor or sublimation pressure (359.45 K, Rate of evaporation): 1.333 ± 0.68 kPa
vapor or sublimation pressure (362.35 K, Rate of evaporation): 1.893 ± 0.58 kPa
vapor or sublimation pressure (367.35 K, Rate of evaporation): 2.653 ± 0.71 kPa
vapor or sublimation pressure (370.65 K, Rate of evaporation): 3.246 ± 0.81 kPa
vapor or sublimation pressure (374.05 K, Rate of evaporation): 3.826 ± 0.8 kPa
vapor or sublimation pressure (374.25 K, Rate of evaporation): 3.906 ± 0.82 kPa
vapor or sublimation pressure (376.95 K, Rate of evaporation): 4.626 ± 0.99 kPa
